# Tested on: TK-10
# Test: Growth inhibition of human TK10 cells assessed as cell growth at 10^-5 M incubated for 48 hrs by sulforhodamine B assay relative to control
# Type: functional
# Conditions: TK-10, 48 h, read-out: Activity
row,Structure (SMILES),growth at 10 µM [%]
1,Cc1ccc(S(=O)(=O)N2CCc3c([nH]c4ccccc34)C2c2ccc(-c3nc4ccccc4[nH]3)cc2)cc1 (stereo not drawn),98

# Tested on: K562
# Test: Growth inhibition of human K562 cells assessed as cell growth at 10^-5 M incubated for 48 hrs by sulforhodamine B assay relative to control
# Type: functional
# Conditions: K562, 48 h, read-out: Activity
row,Structure (SMILES),growth at 10 µM [%]
1,Cc1ccc(S(=O)(=O)N2CCc3c([nH]c4ccccc34)C2c2ccc(-c3nc4ccccc4[nH]3)cc2)cc1 (stereo not drawn),106

# Tested on: U-251
# Test: Growth inhibition of human U251 cells assessed as cell growth at 10^-5 M incubated for 48 hrs by sulforhodamine B assay relative to control
# Type: functional
# Conditions: U-251, 48 h, read-out: Activity
row,Structure (SMILES),growth at 10 µM [%]
1,Cc1ccc(S(=O)(=O)N2CCc3c([nH]c4ccccc34)C2c2ccc(-c3nc4ccccc4[nH]3)cc2)cc1 (stereo not drawn),98

# Tested on: COLO 205
# Test: Growth inhibition of human COLO205 cells assessed as cell growth at 10^-5 M incubated for 48 hrs by sulforhodamine B assay relative to control
# Type: functional
# Conditions: COLO 205, 48 h, read-out: Activity
row,Structure (SMILES),growth at 10 µM [%]
1,Cc1ccc(S(=O)(=O)N2CCc3c([nH]c4ccccc34)C2c2ccc(-c3nc4ccccc4[nH]3)cc2)cc1 (stereo not drawn),92.1

# Tested on: BT-549
# Test: Growth inhibition of human BT549 cells assessed as cell growth at 10^-5 M incubated for 48 hrs by sulforhodamine B assay relative to control
# Type: functional
# Conditions: BT-549, 48 h, read-out: Activity
row,Structure (SMILES),growth at 10 µM [%]
1,Cc1ccc(S(=O)(=O)N2CCc3c([nH]c4ccccc34)C2c2ccc(-c3nc4ccccc4[nH]3)cc2)cc1 (stereo not drawn),77.1

# Tested on: OVCAR-4
# Test: Growth inhibition of human OVCAR4 cells assessed as cell growth at 10^-5 M incubated for 48 hrs by sulforhodamine B assay relative to control
# Type: functional
# Conditions: OVCAR-4, 48 h, read-out: Activity
row,Structure (SMILES),growth at 10 µM [%]
1,Cc1ccc(S(=O)(=O)N2CCc3c([nH]c4ccccc34)C2c2ccc(-c3nc4ccccc4[nH]3)cc2)cc1 (stereo not drawn),85.8

# Tested on: MDA-MB-468
# Test: Growth inhibition of human MDA-MB-468 cells assessed as cell growth at 10^-5 M incubated for 48 hrs by sulforhodamine B assay relative to control
# Type: functional
# Conditions: MDA-MB-468, 48 h, read-out: Activity
row,Structure (SMILES),growth at 10 µM [%]
1,Cc1ccc(S(=O)(=O)N2CCc3c([nH]c4ccccc34)C2c2ccc(-c3nc4ccccc4[nH]3)cc2)cc1 (stereo not drawn),102

# Tested on: UO-31
# Test: Growth inhibition of human UO31 cells assessed as cell growth at 10^-5 M incubated for 48 hrs by sulforhodamine B assay relative to control
# Type: functional
# Conditions: UO-31, 48 h, read-out: Activity
row,Structure (SMILES),growth at 10 µM [%]
1,Cc1ccc(S(=O)(=O)N2CCc3c([nH]c4ccccc34)C2c2ccc(-c3nc4ccccc4[nH]3)cc2)cc1 (stereo not drawn),66.7

# Tested on: SR
# Test: Growth inhibition of human SR cells assessed as cell growth at 10^-5 M incubated for 48 hrs by sulforhodamine B assay relative to control
# Type: functional
# Conditions: read-out: Activity
row,Structure (SMILES),growth at 10 µM [%]
1,Cc1ccc(S(=O)(=O)N2CCc3c([nH]c4ccccc34)C2c2ccc(-c3nc4ccccc4[nH]3)cc2)cc1 (stereo not drawn),97.2

# Tested on: Malme-3M
# Test: Growth inhibition of human MALME-3M cells assessed as cell growth at 10^-5 M incubated for 48 hrs by sulforhodamine B assay relative to control
# Type: functional
# Conditions: read-out: Activity
row,Structure (SMILES),growth at 10 µM [%]
1,Cc1ccc(S(=O)(=O)N2CCc3c([nH]c4ccccc34)C2c2ccc(-c3nc4ccccc4[nH]3)cc2)cc1 (stereo not drawn),89.7

# Tested on: UACC-62
# Test: Growth inhibition of human UACC62 cells assessed as cell growth at 10^-5 M incubated for 48 hrs by sulforhodamine B assay relative to control
# Type: functional
# Conditions: UACC-62, 48 h, read-out: Activity
row,Structure (SMILES),growth at 10 µM [%]
1,Cc1ccc(S(=O)(=O)N2CCc3c([nH]c4ccccc34)C2c2ccc(-c3nc4ccccc4[nH]3)cc2)cc1 (stereo not drawn),65

# Tested on: HCC 2998
# Test: Growth inhibition of human HCC2998 cells assessed as cell growth at 10^-5 M incubated for 48 hrs by sulforhodamine B assay relative to control
# Type: functional
# Conditions: HCC 2998, 48 h, read-out: Activity
row,Structure (SMILES),growth at 10 µM [%]
1,Cc1ccc(S(=O)(=O)N2CCc3c([nH]c4ccccc34)C2c2ccc(-c3nc4ccccc4[nH]3)cc2)cc1 (stereo not drawn),102

# Tested on: SNB-75
# Test: Growth inhibition of human SNB75 cells assessed as cell growth at 10^-5 M incubated for 48 hrs by sulforhodamine B assay relative to control
# Type: functional
# Conditions: SNB-75, 48 h, read-out: Activity
row,Structure (SMILES),growth at 10 µM [%]
1,Cc1ccc(S(=O)(=O)N2CCc3c([nH]c4ccccc34)C2c2ccc(-c3nc4ccccc4[nH]3)cc2)cc1 (stereo not drawn),74

# Tested on: SK-MEL-2
# Test: Growth inhibition of human SK-MEL-2 cells assessed as cell growth at 10^-5 M incubated for 48 hrs by sulforhodamine B assay relative to control
# Type: functional
# Conditions: SK-MEL-2, 48 h, read-out: Activity
row,Structure (SMILES),growth at 10 µM [%]
1,Cc1ccc(S(=O)(=O)N2CCc3c([nH]c4ccccc34)C2c2ccc(-c3nc4ccccc4[nH]3)cc2)cc1 (stereo not drawn),81.6

# Tested on: HCT-15
# Test: Growth inhibition of human HCT15 cells assessed as cell growth at 10^-5 M incubated for 48 hrs by sulforhodamine B assay relative to control
# Type: functional
# Conditions: HCT-15, 48 h, read-out: Activity
row,Structure (SMILES),growth at 10 µM [%]
1,Cc1ccc(S(=O)(=O)N2CCc3c([nH]c4ccccc34)C2c2ccc(-c3nc4ccccc4[nH]3)cc2)cc1 (stereo not drawn),94.3

# Tested on: HOP-92
# Test: Growth inhibition of human HOP92 cells assessed as cell growth at 10^-5 M incubated for 48 hrs by sulforhodamine B assay relative to control
# Type: functional
# Conditions: HOP-92, 48 h, read-out: Activity
row,Structure (SMILES),growth at 10 µM [%]
1,Cc1ccc(S(=O)(=O)N2CCc3c([nH]c4ccccc34)C2c2ccc(-c3nc4ccccc4[nH]3)cc2)cc1 (stereo not drawn),102

# Tested on: 786-0
# Test: Growth inhibition of human 786-0 cells assessed as cell growth at 10^-5 M incubated for 48 hrs by sulforhodamine B assay relative to control
# Type: functional
# Conditions: 786-0, 48 h, read-out: Activity
row,Structure (SMILES),growth at 10 µM [%]
1,Cc1ccc(S(=O)(=O)N2CCc3c([nH]c4ccccc34)C2c2ccc(-c3nc4ccccc4[nH]3)cc2)cc1 (stereo not drawn),99.6

# Tested on: T47D
# Test: Growth inhibition of human T47D cells assessed as cell growth at 10^-5 M incubated for 48 hrs by sulforhodamine B assay relative to control
# Type: functional
# Conditions: read-out: Activity
row,Structure (SMILES),growth at 10 µM [%]
1,Cc1ccc(S(=O)(=O)N2CCc3c([nH]c4ccccc34)C2c2ccc(-c3nc4ccccc4[nH]3)cc2)cc1 (stereo not drawn),89.1

# Tested on: ACHN
# Test: Growth inhibition of human ACHN cells assessed as cell growth at 10^-5 M incubated for 48 hrs by sulforhodamine B assay relative to control
# Type: functional
# Conditions: read-out: Activity
row,Structure (SMILES),growth at 10 µM [%]
1,Cc1ccc(S(=O)(=O)N2CCc3c([nH]c4ccccc34)C2c2ccc(-c3nc4ccccc4[nH]3)cc2)cc1 (stereo not drawn),79.1

# Tested on: DU-145
# Test: Growth inhibition of human DU145 cells assessed as cell growth at 10^-5 M incubated for 48 hrs by sulforhodamine B assay relative to control
# Type: functional
# Conditions: DU-145, 48 h, read-out: Activity
row,Structure (SMILES),growth at 10 µM [%]
1,Cc1ccc(S(=O)(=O)N2CCc3c([nH]c4ccccc34)C2c2ccc(-c3nc4ccccc4[nH]3)cc2)cc1 (stereo not drawn),101

# Tested on: NCI/ADR-RES
# Test: Growth inhibition of human NCI-ADR-RES cells assessed as cell growth at 10^-5 M incubated for 48 hrs by sulforhodamine B assay relative to control
# Type: functional
# Conditions: read-out: Activity
row,Structure (SMILES),growth at 10 µM [%]
1,Cc1ccc(S(=O)(=O)N2CCc3c([nH]c4ccccc34)C2c2ccc(-c3nc4ccccc4[nH]3)cc2)cc1 (stereo not drawn),88.9

# Tested on: MOLT-4
# Test: Growth inhibition of human MOLT4 cells assessed as cell growth at 10^-5 M incubated for 48 hrs by sulforhodamine B assay relative to control
# Type: functional
# Conditions: MOLT-4, 48 h, read-out: Activity
row,Structure (SMILES),growth at 10 µM [%]
1,Cc1ccc(S(=O)(=O)N2CCc3c([nH]c4ccccc34)C2c2ccc(-c3nc4ccccc4[nH]3)cc2)cc1 (stereo not drawn),95.9

# Tested on: CCRF-CEM
# Test: Growth inhibition of human CCRF-CEM cells assessed as cell growth at 10^-5 M incubated for 48 hrs by sulforhodamine B assay relative to control
# Type: functional
# Conditions: read-out: Activity
row,Structure (SMILES),growth at 10 µM [%]
1,Cc1ccc(S(=O)(=O)N2CCc3c([nH]c4ccccc34)C2c2ccc(-c3nc4ccccc4[nH]3)cc2)cc1 (stereo not drawn),106

# Tested on: MDA-MB-435
# Test: Growth inhibition of human MDA-MB-435 cells assessed as cell growth at 10^-5 M incubated for 48 hrs by sulforhodamine B assay relative to control
# Type: functional
# Conditions: MDA-MB-435, 48 h, read-out: Activity
row,Structure (SMILES),growth at 10 µM [%]
1,Cc1ccc(S(=O)(=O)N2CCc3c([nH]c4ccccc34)C2c2ccc(-c3nc4ccccc4[nH]3)cc2)cc1 (stereo not drawn),93.4

# Tested on: HT-29
# Test: Growth inhibition of human HT-29 cells assessed as cell growth at 10^-5 M incubated for 48 hrs by sulforhodamine B assay relative to control
# Type: functional
# Conditions: HT-29, 48 h, read-out: Activity
row,Structure (SMILES),growth at 10 µM [%]
1,Cc1ccc(S(=O)(=O)N2CCc3c([nH]c4ccccc34)C2c2ccc(-c3nc4ccccc4[nH]3)cc2)cc1 (stereo not drawn),87.2

# Tested on: OVCAR-5
# Test: Growth inhibition of human OVCAR5 cells assessed as cell growth at 10^-5 M incubated for 48 hrs by sulforhodamine B assay relative to control
# Type: functional
# Conditions: OVCAR-5, 48 h, read-out: Activity
row,Structure (SMILES),growth at 10 µM [%]
1,Cc1ccc(S(=O)(=O)N2CCc3c([nH]c4ccccc34)C2c2ccc(-c3nc4ccccc4[nH]3)cc2)cc1 (stereo not drawn),78.7

# Tested on: NCI-H322M
# Test: Growth inhibition of human NCI-H322M cells assessed as cell growth at 10^-5 M incubated for 48 hrs by sulforhodamine B assay relative to control
# Type: functional
# Conditions: read-out: Activity
row,Structure (SMILES),growth at 10 µM [%]
1,Cc1ccc(S(=O)(=O)N2CCc3c([nH]c4ccccc34)C2c2ccc(-c3nc4ccccc4[nH]3)cc2)cc1 (stereo not drawn),87.7

# Tested on: LOX IMVI
# Test: Growth inhibition of human LOXIMVI cells assessed as cell growth at 10^-5 M incubated for 48 hrs by sulforhodamine B assay relative to control
# Type: functional
# Conditions: read-out: Activity
row,Structure (SMILES),growth at 10 µM [%]
1,Cc1ccc(S(=O)(=O)N2CCc3c([nH]c4ccccc34)C2c2ccc(-c3nc4ccccc4[nH]3)cc2)cc1 (stereo not drawn),85.5

# Tested on: OVCAR-3
# Test: Growth inhibition of human OVCAR3 cells assessed as cell growth at 10^-5 M incubated for 48 hrs by sulforhodamine B assay relative to control
# Type: functional
# Conditions: OVCAR-3, 48 h, read-out: Activity
row,Structure (SMILES),growth at 10 µM [%]
1,Cc1ccc(S(=O)(=O)N2CCc3c([nH]c4ccccc34)C2c2ccc(-c3nc4ccccc4[nH]3)cc2)cc1 (stereo not drawn),93.5

# Tested on: HL-60(TB)
# Test: Growth inhibition of human HL-60(TB) cells assessed as cell growth at 10^-5 M incubated for 48 hrs by sulforhodamine B assay relative to control
# Type: functional
# Conditions: HL-60, 48 h, read-out: Activity
row,Structure (SMILES),growth at 10 µM [%]
1,Cc1ccc(S(=O)(=O)N2CCc3c([nH]c4ccccc34)C2c2ccc(-c3nc4ccccc4[nH]3)cc2)cc1 (stereo not drawn),105

# Tested on: NCI-H226
# Test: Growth inhibition of human NCI-H226 cells assessed as cell growth at 10^-5 M incubated for 48 hrs by sulforhodamine B assay relative to control
# Type: functional
# Conditions: NCI-H226, 48 h, read-out: Activity
row,Structure (SMILES),growth at 10 µM [%]
1,Cc1ccc(S(=O)(=O)N2CCc3c([nH]c4ccccc34)C2c2ccc(-c3nc4ccccc4[nH]3)cc2)cc1 (stereo not drawn),86.4

# Tested on: NCI-H23
# Test: Growth inhibition of human NCI-H23 cells assessed as cell growth at 10^-5 M incubated for 48 hrs by sulforhodamine B assay relative to control
# Type: functional
# Conditions: NCI-H23, 48 h, read-out: Activity
row,Structure (SMILES),growth at 10 µM [%]
1,Cc1ccc(S(=O)(=O)N2CCc3c([nH]c4ccccc34)C2c2ccc(-c3nc4ccccc4[nH]3)cc2)cc1 (stereo not drawn),85.7

# Tested on: Hs-578T
# Test: Growth inhibition of human Hs 578T cells assessed as cell growth at 10^-5 M incubated for 48 hrs by sulforhodamine B assay relative to control
# Type: functional
# Conditions: read-out: Activity
row,Structure (SMILES),growth at 10 µM [%]
1,Cc1ccc(S(=O)(=O)N2CCc3c([nH]c4ccccc34)C2c2ccc(-c3nc4ccccc4[nH]3)cc2)cc1 (stereo not drawn),89.2

# Reference: ChEMBL document CHEMBL4004838, “Design and synthesis of novel phenyl -1, 4-beta-carboline-hybrid molecules as potential anticancer agents” (Eur J Med Chem, 2017)
